Experimental data: patent US8143259B2, “Cold menthol receptor antagonists” (Janssen Pharmaceutica, NV, priority 2008, dated 2012)
pIC50: −log10 of the molar value. Where “and” joins values, the source holds several entries; their conditions need not be identical. Identical values can stand only once.

Target: T1, canine TRPM8 (Canis lupus familiaris, UniProt Q1A7N1)
T1 construct: expressed in transfected cells
Assay: In Vitro Canine TRPM8 Functional Assay (Ca2+ fluorescence, icilin activation)
Format: cell-based
Settings: for inhibition at 0.2 µM: HEK293, 0.2 μM compound; for inhibition at 0.2 µM / % Inh @ 0.2 μM: canine TRPM8 HEK293, icilin; for pIC50: HEK293 cells stably expressing canine TRPM8, icilin activation, Ca2+ fluorescence; for % Inh @ 0.2 μM: 0.2 μM compound
Method: The functional activity of compounds of the formula (I) was determined by measuring changes in intracellular calcium concentration using a Ca^2+-sensitive fluorescent dye. The changes in fluorescent signal were monitored by a fluorescence plate reader, either a FLIPR™ (Molecular Devices) or FDSS (Hamamatsu). Increases in intracellular Ca^2+ concentration were readily detected upon activation with icilin.
HEK293 cells stably expressing canine TRPM8 were routinely grown as monolayers in Dulbecco's minimum essential medium supplemented with 10% FBS, 2 mM L-glutamine, 100 units/mL penicillin, 100 ug/mL streptomycin and 400 μg/mL G418. Cells were maintained in 5% CO2 at 37° C. At 24 hrs prior to assay, cells were seeded in black wall, clear-base poly-D-lysine coated 384-well plates (BD Biosciences, NJ, USA) at a density of 5,000 cells per well in culture medium and grown overnight in 5% CO2 at 37° C. On assay day, growth media was removed and cells were loaded with Calcium 3 Dye (Molecular Devices) for 35 min at 37° C., under 5% CO2 and then for 25 min at room temperature and atmosphere. Subsequently, cells were tested for agonist-induced increases in intracellular Ca^2+ levels using FLIPR™ or FDSS. Cells were challenged with compounds of the formula (I) (at varying concentrations) and intracellular Ca^2+ was measured for 5 min prior to the addition of icilin to all wells to achieve a final concentration that produces approximately an 80% maximal response.
Maximal fluorescence intensity (FI) achieved upon addition of icilin was exported from the FLIPR or FDSS software and further analyzed using GraphPad Prism 3.02 (Graph Pad Software Inc., CA, U.S.A.). Basal FI was subtracted prior to normalizing data to percent of maximal response. Curves were generated using the average of quadruplicate wells for each data point, were analyzed using nonlinear regression of either sigmoidal dose response or sigmoidal dose response (variable slope).

T1 sequence (Q1A7N1 1-1104): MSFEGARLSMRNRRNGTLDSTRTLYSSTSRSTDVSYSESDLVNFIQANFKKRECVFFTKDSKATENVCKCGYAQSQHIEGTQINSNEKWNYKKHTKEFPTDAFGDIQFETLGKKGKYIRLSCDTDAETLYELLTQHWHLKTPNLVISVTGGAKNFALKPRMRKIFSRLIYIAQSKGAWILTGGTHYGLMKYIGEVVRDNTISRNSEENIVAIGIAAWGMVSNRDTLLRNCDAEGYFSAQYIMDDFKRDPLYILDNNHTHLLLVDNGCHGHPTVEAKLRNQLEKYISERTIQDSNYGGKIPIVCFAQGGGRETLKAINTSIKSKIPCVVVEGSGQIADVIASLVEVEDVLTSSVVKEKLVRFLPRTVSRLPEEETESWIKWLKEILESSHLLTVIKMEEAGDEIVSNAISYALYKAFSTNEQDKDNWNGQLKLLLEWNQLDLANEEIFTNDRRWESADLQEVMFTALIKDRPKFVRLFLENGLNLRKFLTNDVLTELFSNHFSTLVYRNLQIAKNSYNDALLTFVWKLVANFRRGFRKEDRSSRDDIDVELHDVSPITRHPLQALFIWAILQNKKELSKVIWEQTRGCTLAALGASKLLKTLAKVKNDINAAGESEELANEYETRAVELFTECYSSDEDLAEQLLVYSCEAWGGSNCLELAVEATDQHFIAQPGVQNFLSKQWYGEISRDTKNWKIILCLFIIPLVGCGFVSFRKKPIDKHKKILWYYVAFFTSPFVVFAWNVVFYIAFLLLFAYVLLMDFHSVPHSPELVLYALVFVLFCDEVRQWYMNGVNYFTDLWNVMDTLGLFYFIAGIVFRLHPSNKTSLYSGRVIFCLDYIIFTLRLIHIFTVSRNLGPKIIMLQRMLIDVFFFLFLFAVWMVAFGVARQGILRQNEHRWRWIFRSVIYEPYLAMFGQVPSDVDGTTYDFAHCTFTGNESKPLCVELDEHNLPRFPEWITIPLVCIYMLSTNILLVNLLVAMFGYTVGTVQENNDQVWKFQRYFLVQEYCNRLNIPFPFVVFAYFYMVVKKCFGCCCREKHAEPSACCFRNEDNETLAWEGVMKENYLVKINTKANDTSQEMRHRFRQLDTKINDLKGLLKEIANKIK

SMILES | inhibition at 0.2 µM [%] | pIC50 | % Inh @ 0.2 μM (0.2 µM) | % Inh @ 0.2 μM [%]
O=C(C(Nc1ccccc1F)c1ccc(C(F)(F)F)cc1)N1CCCC1c1ccccc1Cl (single isomer, unassigned) [Cpd 189] | 98 | 8.05 |  | 
O=C(C(Nc1ccccc1F)c1ccc(C(F)(F)F)cc1)N1CCCC1c1ccccc1 (single isomer, unassigned) [Cpd 190] | 89 | 7.07 |  | 
O=C(C(Nc1ccccc1F)c1ccc(C(F)(F)F)cc1)N1CCCC1c1ccccc1 (single isomer, unassigned) [Cpd 191] |  | 8.30 | 100% | 
O=C(C(Nc1ccccc1F)c1ccc(C(F)(F)F)cc1)N1CCCC1c1ccccc1Cl (single isomer, unassigned) [Cpd 198] |  | 7.72 and 7.46 | 101% | 
COC(=O)[C@@H]1CC[C@H](c2ccccc2)N1C(=O)C(Nc1c(F)cccc1F)c1ccc(Br)cc1 (single isomer, unassigned) [Cpd 204] | 47 |  |  | 
COC(=O)[C@@H]1CC[C@H](c2ccccc2)N1C(=O)C(Nc1c(F)cccc1F)c1ccc(Br)cc1 (single isomer, unassigned) [Cpd 205] |  |  | 62% | 
COC(=O)C1CCC(c2ccccc2)N1C(=O)C(Nc1ccccc1)c1ccc(Cl)cc1 (single isomer, unassigned) [Cpd 206] | 92 | 7.12 |  | 
COC(=O)C1CCC(c2ccccc2)N1C(=O)C(Nc1ccccc1F)c1ccc(Br)cc1 (single isomer, unassigned) [Cpd 208] | 101 | 8.05 |  | 
COC(=O)C1CCC(c2ccccc2)N1C(=O)C(Nc1ccccc1F)c1ccc(Br)cc1 (single isomer, unassigned) [Cpd 209] |  | 7.00 | 94% | 
COC(=O)C1CCC(c2ccccc2)N1C(=O)C(Nc1ccccc1)c1ccc(Cl)cc1 (single isomer, unassigned) [Cpd 212] |  | 7.77 | 99% | 
O=C(C(Nc1ccccc1)c1ccc(Cl)cc1)N1[C@H](CO)CC[C@@H]1c1ccccc1 (single isomer, unassigned) [Cpd 235] |  | 7.27 |  | 
O=C(C(Nc1ccccc1F)c1ccc(Br)cc1)N1[C@@H](CO)CC[C@H]1c1ccccc1 (single isomer, unassigned) [Cpd 242] |  | 7.18 |  | 
O=C([C@H](Nc1c(F)cccc1F)c1ccc(Br)cc1)N1[C@H](CO)CC[C@@H]1c1ccccc1 (single isomer, unassigned) [Cpd 243] | 88 | 6.87 |  | 
O=C(C(Nc1ccccc1F)c1ccc2ncccc2c1)N1CCCC1c1ccccc1F (single isomer, unassigned) [Cpd 247] | 93 | 8.08 |  | 
O=C(C(Nc1ccccc1F)c1ccc2ncccc2c1)N1CCCC1c1ccccc1F (single isomer, unassigned) [Cpd 251] |  | 7.27 | 90% | 
O=C(C(c1ccc(C(F)(F)F)cc1)N1CCc2ccccc21)N1CCC[C@H]1c1cccnc1 (single isomer, unassigned) [Cpd 274] | 98 | 7.77 |  | 
COc1ccccc1C1CCCN1C(=O)C(Nc1ccccc1F)c1cnc2ccccc2c1 (single isomer, unassigned) [Cpd 277] | 101 | 8.10 |  | 
COc1ccccc1C1CCCN1C(=O)C(Nc1ccccc1F)c1cnc2ccccc2c1 (single isomer, unassigned) [Cpd 278] |  | 7.51 and 7.44 | 94% and 101% | 
O=C(C(Nc1ccccc1F)c1cnc2ccccc2c1)N1CCC[C@H]1c1ccccc1F (single isomer, unassigned) [Cpd 280] | 93 | 8.40 and 8.10 | 101% | 
O=C(C(Nc1ccccc1F)c1ccc(-c2ccccn2)cc1)N1CCCC1c1ccccc1F (single isomer, unassigned) [Cpd 296] | 88 | 8.40 and 8.05 | 96% | 

SMILES | inhibition at 0.2 µM [%] | pIC50 | % Inh @ 0.2 μM (0.2 µM) | % Inh @ 0.2 μM [%]
O=C(C(Nc1ccccc1F)c1ccc(-c2ccccn2)cc1)N1CCCC1c1ccccc1F (single isomer, unassigned) [Cpd 297] |  | 7.19 and 7.16 | 85% and 87% | 
O=C(C(Nc1ccccc1F)c1cnc2ccccc2c1)N1CCCC1c1cccnc1 (single isomer, unassigned) [Cpd 298] |  |  |  | 22
O=C(C(Nc1ccccc1F)c1ccc(-c2ccccc2)nc1)N1CCC[C@H]1c1ccccc1F (single isomer, unassigned) [Cpd 307] | 102 | 8.40 |  | 
O=C(C(Nc1ccccc1F)c1ccc(-c2ccccc2)nc1)N1CCCC1c1ccccc1F (single isomer, unassigned) [Cpd 308] |  |  |  | 11
O=C(C(Nc1ccccc1F)c1ccc2ncccc2c1)N1CCCC1c1ccccc1Cl (single isomer, unassigned) [Cpd 315] |  |  |  | 49
O=C(C(Nc1ccccc1F)c1cc2ccccc2s1)N1CCCC1c1ccncc1 (single isomer, unassigned) [Cpd 322] | 89 | 8.10 |  | 
O=C(C(Nc1ccccc1F)c1cc2ccccc2s1)N1CCCC1c1ccncc1 (single isomer, unassigned) [Cpd 323] |  | 7.62 | 95% | 
O=C(C(Nc1ccccc1F)c1cc2ccccc2s1)N1CCCC1c1ccccn1 (single isomer, unassigned) [Cpd 330] | 101 | 8.22 |  | 
O=C(C(Nc1ccccc1F)c1cc2ccccc2s1)N1CCCC1c1ccccn1 (single isomer, unassigned) [Cpd 331] |  | 7.89 |  | 101
O=C(C(Nc1ccccc1F)c1cncc2ccccc12)N1CCCC1c1ccccc1F (single isomer, unassigned) [Cpd 332] |  |  | 47% | 
O=C(C(Nc1ccccc1F)c1cncc2ccccc12)N1CCCC1c1ccccc1F (single isomer, unassigned) [Cpd 333] |  |  | 62% | 
O=C(C(Nc1ccccc1F)c1ccc(-c2ccccn2)cc1)N1CCCC1c1ccccc1Cl (single isomer, unassigned) [Cpd 338] | 101 | 7.77 |  | 
O=C(C(Nc1ccccc1F)c1ccc(-c2ccccn2)cc1)N1CCCC1c1ccccc1Cl (single isomer, unassigned) [Cpd 339] |  | 7.57 | 97% | 
Cc1nc2ccc(C(Nc3ccccc3F)C(=O)N3CCCC3c3ccccc3F)cc2s1 (single isomer, unassigned) [Cpd 340] | 101 | 8.30 |  | 
Cc1nc2ccc(C(Nc3ccccc3F)C(=O)N3CCCC3c3ccccc3F)cc2s1 (single isomer, unassigned) [Cpd 341] |  | 7.62 | 100% | 
O=C(C(Nc1ccccc1F)c1ccc(C(F)(F)F)cc1)N1CCCC1c1cncc(Br)c1 (single isomer, unassigned) [Cpd 345] | 92 | 7.36 |  | 
O=C(C(Nc1ccccc1F)c1ccc(C(F)(F)F)cc1)N1CCCC1c1cncc(Br)c1 (single isomer, unassigned) [Cpd 346] |  | 7.42 | 97% | 
CC(C)(C)c1ccc(C(Nc2ccccc2F)C(=O)N2CCCC2c2ccccc2F)cn1 (single isomer, unassigned) [Cpd 356] |  |  |  | 57
CC(C)(C)c1ccc(C(Nc2ccccc2F)C(=O)N2CCC[C@H]2c2ccccc2F)cn1 (single isomer, unassigned) [Cpd 357] | 100 | 8.52 |  | 
